Structures can show the parent of a compound that is named as a salt.
Molecular target: T1, purified recombinantly expressed human SSAO (Homo sapiens, UniProt Q16853)
T1 construct: made in house
T1 sequence (Q16853 29-763 limits assumed): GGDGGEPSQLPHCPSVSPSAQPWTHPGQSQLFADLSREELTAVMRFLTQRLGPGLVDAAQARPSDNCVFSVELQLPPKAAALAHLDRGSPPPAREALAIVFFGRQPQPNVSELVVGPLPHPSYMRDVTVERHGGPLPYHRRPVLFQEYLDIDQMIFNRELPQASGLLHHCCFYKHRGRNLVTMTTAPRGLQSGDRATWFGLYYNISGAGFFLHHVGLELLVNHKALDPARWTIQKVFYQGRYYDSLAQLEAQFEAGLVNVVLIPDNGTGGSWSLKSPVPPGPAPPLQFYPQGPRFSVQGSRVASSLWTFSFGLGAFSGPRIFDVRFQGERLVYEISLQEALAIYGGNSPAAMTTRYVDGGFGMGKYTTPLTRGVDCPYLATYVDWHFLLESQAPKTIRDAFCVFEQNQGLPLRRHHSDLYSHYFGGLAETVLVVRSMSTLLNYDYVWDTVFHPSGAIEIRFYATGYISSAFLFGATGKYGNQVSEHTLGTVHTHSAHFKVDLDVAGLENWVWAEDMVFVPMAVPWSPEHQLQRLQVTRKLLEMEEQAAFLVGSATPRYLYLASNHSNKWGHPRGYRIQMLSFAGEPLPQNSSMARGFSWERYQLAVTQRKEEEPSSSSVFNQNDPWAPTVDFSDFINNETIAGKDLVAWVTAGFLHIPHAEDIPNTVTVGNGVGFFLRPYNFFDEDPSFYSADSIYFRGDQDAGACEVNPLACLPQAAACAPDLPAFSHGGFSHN
Assay: SSAO enzyme inhibition assay (benzylamine substrate; hydrogen peroxide/HRP-coupled or 14C aldehyde detection)
Type: biochemical
Conditions: human recombinant SSAO, RT, benzylamine as substrate; read-out: SSAO inhibitory activity IC50
Protocol: All primary assays were performed at RT. with purified recombinantly expressed human SSAO. Enzyme was prepared essentially as described in Ohman et al. (Protein Expression and Purification 46 (2006) 321 331). In addition, secondary- and selectivity assays were performed using SSAO prepared from various tissues or purified rat recombinant SSAO. The enzyme activity was assayed with benzylamine as substrate by measuring either benzaldehyde production, using ^14C-labeled substrate, or by utilizing the production of hydrogen peroxide in a horseradish peroxidase (HRP) coupled reaction. Briefly, test compounds were dissolved in dimethyl sulfoxide (DMSO) to a concentration of 10 mM. Dose-response measurements were assayed by either creating 1:10 serial dilutions in DMSO to produce a 7 point curve or by making 1:3 serial dilutions in DMSO to produce 11 point curves. The top concentrations were adjusted depending on the potency of the compounds and subsequent dilution in reaction buffer yielded a final DMSO concentration ≦2%.
In a horseradish peroxidase (HRP) coupled reaction, hydrogen peroxide oxidation of 10-acetyl-3,7-dihydroxyphenoxazine produced resorufin, which is a highly fluorescent compound (Zhout and Panchuk-Voloshina. Analytical Biochemistry 253 (1997) 169-174; Amplex® Red Hydrogen Peroxide/peroxidase Assay kit, Invitrogen A22188). Enzyme and compounds in 50 mM sodium phosphate, pH 7.4 were set to pre-incubate in flat-bottomed microtiter plates for approximately 15 minutes before initiating the reaction by addition of a mixture of HRP, benzylamine and Amplex reagent. Benzylamine concentration was fixed at a concentration corresponding to the Michaelis constant, determined using standard procedures. Fluorescence intensity was then measured at several time points during 1-2 hours, exciting at 544 nm and reading the emission at 590 nm. For the human SSAO assay final concentrations of the reagents in the assay wells were: SSAO enzyme 1 μg/ml, benzylamine 100 μM, Amplex reagent 20 μM, HRP 0.1 U/mL and varying concentrations of test compound. The inhibition was measured as % decrease of the signal compared to a control without inhibitor (only diluted DMSO). The background signal from a sample containing no SSAO enzyme was subtracted from all data points. Data was fitted to a four parameter logistic model and IC50 values were calculated using the GraphPad Prism 4 or XLfit 4 programs.
SSAO activity was assayed using 14C-labeled benzylamine and analysed by measuring radioactive benzaldehyde. In a white 96-well optiplate (Packard), 20 μL of diluted test compound was pre-incubated at RT. with 20 μL SSAO enzyme for approximately 15 minutes with continuous agitation. All dilutions were made with PBS. The reaction was initiated by adding 20 μL of the benzylamine substrate solution containing [7-14C] Benzylamine hydrochloride (CFA589, GE Healthcare). The plate was incubated for 1 hour as above after which the reaction was stopped by acidification (10 μL 1 M HCl). Then 90 μL Micro Scint-E solution (Perkin-Elmer) was added to each well and the plate was continuously mixed for 15 minutes. Phase separation occurred instantly and activity was read in a Topcount scintillation counter (Perkin-Elmer). In the final reaction well, the human recombinant SSAO concentration was 10 μg/ml. In order to optimize sensitivity, the substrate concentration was decreased as compared to the HRP coupled assay in order to get a higher fraction of radioactive product. In the human SSAO assay, benzylamine concentration was 40 μM (0.2 μCi/mL). Data was analysed as above.

| Structure (SMILES) | IC50 [nM] |
| --- | --- |
| O=C(N1CCOCC1)N1CCC(c2cn(-c3ccc(Cl)cc3)c3cnccc23)CC1 [Example 9, 4-({4-[1-(4-Chlorophenyl)-1H-pyrrolo[2,3-c]pyridin-3-yl]piperidin-1-yl}carbonyl)morpholine] | 100 to 500 |
| CCOC(=O)C1CCN(c2nn(-c3ccc(Cl)cc3)c3cnccc23)CC1 [Example 11, Ethyl 1-[1-(4-chlorophenyl)-1H-pyrazolo[3,4-c]pyridin-3-yl]piperidine-4-carboxylate] | 500 to 2500 |
| CCOC(=O)C1CCN(c2nn(-c3ccc(C)cc3)c3cnccc23)CC1 [Example 12, Ethyl 1-[1-(4-methylphenyl)-1H-pyrazolo[3,4-c]pyridin-3-yl]piperidine-4-carboxylate] | 100 to 500 |
| O=C(O)C1CCN(c2nn(-c3ccc(Cl)cc3)c3cnccc23)CC1 [Example 13, 1-[1-(4-Chlorophenyl)-1H-pyrazolo[3,4-c]pyridin-3-yl]piperidine-4-carboxylic acid hydrochloride] | 100 to 500 |
| NCCNC(=O)C1CCN(c2nn(-c3ccc(Cl)cc3)c3cnccc23)CC1 [Example 14, N-(2-Aminoethyl)-1-[1-(4-chlorophenyl)-1H-pyrazolo[3,4-c]pyridin-3-yl]piperidine-4-carboxamide dihydrochloride] | 100 to 500 |
| O=C(C1CCN(c2nn(-c3ccc(Cl)cc3)c3cnccc23)CC1)N1CCOCC1 [Example 15, 4-({1-[1-(4-Chlorophenyl)-1H-pyrazolo[3,4-c]pyridin-3-yl]piperidin-4-yl}carbonyl) morpholine] | 500 to 2500 |
| O=C(C1CCN(c2nn(-c3ccc(Cl)cc3)c3cnccc23)CC1)N1CCNCC1 [Example 16, 1-({1-[1-(4-Chlorophenyl)-1H-pyrazolo[3,4-c]pyridin-3-yl]piperidin-4-yl}carbonyl)piperazine dihydrochloride] | 100 to 500 |
| COC(=O)C1COCCN1c1nn(-c2ccc(Cl)cc2)c2cnccc12 (stereo not drawn) [Example 20, Methyl 4-[1-(4-chlorophenyl)-1H-pyrazolo[3,4-c]pyridin-3-yl]morpholine-3-carboxylate] | 100 to 500 |
| OCCC1COCCN1c1nn(-c2ccc(Cl)cc2)c2cnccc12 (stereo not drawn) [Example 22, 2-{4-[1-(4-Chlorophenyl)-1H-pyrazolo[3,4-c]pyridin-3-yl]morpholin-3-yl}ethan-1-ol] | < 100 |
| COC(=O)C1CCCCN1c1nn(-c2ccc(Cl)cc2)c2cnccc12 (stereo not drawn) [Example 23, Methyl 1-[1-(4-chlorophenyl)-1H-pyrazolo[3,4-c]pyridin-3-yl]piperidine-2-carboxylate] | 500 to 2500 |
| NCCNC(=O)C1CCCCN1c1nn(-c2ccc(Cl)cc2)c2cnccc12 (stereo not drawn) [Example 24, N-(2-Aminoethyl)-1-[1-(4-chlorophenyl)-1H-pyrazolo[3,4-c]pyridin-3-yl]piperidine-2-carboxamide dihydrochloride] | < 100 |
| O=C(C1CCCCN1c1nn(-c2ccc(Cl)cc2)c2cnccc12)N1CCNCC1 (stereo not drawn) [Example 25, 1-({1-[1-(4-Chlorophenyl)-1H-pyrazolo[3,4-c]pyridin-3-yl]piperidin-2-yl}carbonyl) piperazine] | < 100 |
| Cc1ccc(-n2cc(N3CCOCC3)c3ccncc32)cc1 [Example 26, 4-[1-(4-Methylphenyl)-1H-pyrrolo[2,3-c]pyridin-3-yl]morpholine] | 100 to 500 |
| Oc1cncc2c1c(C1CCNCC1)cn2-c1ccc(Cl)cc1 [Example 27, 1-(4-Chlorophenyl)-3-(piperidin-4-yl)-1H-pyrrolo[2,3-c]pyridin-4-ol] | < 100 |

More lines, now with the values ahead:

| IC50 [nM] | Structure (SMILES) |
| --- | --- |
| < 100 | NCCN1CCC(c2cn(-c3ccc(Cl)cc3)c3cnccc23)CC1 [Example 1, 2,2,2-Trifluoroacetic acid; 2-{4-[1-(4-chlorophenyl)-1H-pyrrolo[2,3-c]pyridin-3-yl]piperidin-1-yl}ethan-1-amine] |
| < 100 | NCCCOC(=O)N1CCC(c2cn(-c3ccc(Cl)cc3)c3cnccc23)CC1 [Example 2, 3-Aminopropyl 4-[1-(4-chlorophenyl)-1H-pyrrolo[2,3-c]pyridin-3-yl]piperidine-1-carboxylate] |
| < 100 | CN(C)CCCC(=O)N1CCC(c2cn(-c3ccc(Cl)cc3)c3cnccc23)CC1 [Example 3, 1-{4-[1-(4-Chlorophenyl)-1H-pyrrolo[2,3-c]pyridin-3-yl]piperidin-1-yl}-4-(dimethylamino)butan-1-one; 2,2,2-trifluoroacetic acid] |
| < 100 | NCCCCC(=O)N1CCC(c2cn(-c3ccc(Cl)cc3)c3cnccc23)CC1 [Example 4, 5-Amino-1-{4-[1-(4-chlorophenyl)-1H-pyrrolo[2,3-c]pyridin-3-yl]piperidin-1-yl}pentan-1-one] |
| < 100 | NCCNC(=O)N1CCC(c2cn(-c3ccc(Cl)cc3)c3cnccc23)CC1 [Example 5, N-(2-Aminoethyl)-4-[1-(4-chlorophenyl)-1H-pyrrolo[2,3-c]pyridin-3-yl]piperidine-1-carboxamide] |
| < 100 | NCCCNC(=O)N1CCC(c2cn(-c3ccc(Cl)cc3)c3cnccc23)CC1 [Example 6, N-(3-Aminopropyl)-4-[1-(4-chlorophenyl)-1H-pyrrolo[2,3-c]pyridin-3-yl]piperidine-1-carboxamide] |
| < 100 | CN(C)CCCNC(=O)N1CCC(c2cn(-c3ccc(Cl)cc3)c3cnccc23)CC1 [Example 7, 4-[1-(4-Chlorophenyl)-1H-pyrrolo[2,3-c]pyridin-3-yl]-N-[3-(dimethylamino)propyl]piperidine-1-carboxamide] |
| < 100 | O=C(N1CCNCC1)N1CCC(c2cn(-c3ccc(Cl)cc3)c3cnccc23)CC1 [Example 8, 1-({4-[1-(4-Chlorophenyl)-1H-pyrrolo[2,3-c]pyridin-3-yl]piperidin-1-yl}carbonyl)piperazine] |
| < 100 | O=C(N1CCCNCC1)N1CCC(c2cn(-c3ccc(Cl)cc3)c3cnccc23)CC1 [Example 10, 1-({4-[1-(4-Chlorophenyl)-1H-pyrrolo[2,3-c]pyridin-3-yl]piperidin-1-yl}carbonyl)-1,4-diazepane] |
| < 100 | Cc1ccc(-n2nc(N3CCOCC3CO)c3ccncc32)cc1 (stereo not drawn) [Example 17, {4-[1-(4-Methylphenyl)-1H-pyrazolo[3,4-c]pyridin-3-yl]morpholin-3-yl}methanol] |
| < 100 | Cc1ccc(-n2nc(N3CCOC(CO)C3)c3ccncc32)cc1 (stereo not drawn) [Example 18, {4-[1-(4-Methylphenyl)-1H-pyrazolo[3,4-c]pyridin-3-yl]morpholin-2-yl}methanol] |
| < 100 | OC[C@@H]1COCCN1c1nn(-c2ccc(Cl)cc2)c2cnccc12 [Example 19, [(3R)-4-[1-(4-Chlorophenyl)-1H-pyrazolo[3,4-c]pyridin-3-yl]morpholin-3-yl]methanol] |
| < 100 | NCCNC(=O)C1COCCN1c1nn(-c2ccc(Cl)cc2)c2cnccc12 (stereo not drawn) [Example 21, N-(2-Aminoethyl)-4-[1-(4-chlorophenyl)-1H-pyrazolo[3,4-c]pyridin-3-yl]morpholine-3-carboxamide] |

From patent US9150574B2, “Enzyme inhibitor compounds” (Proximagen Limited, priority 2011, dated 2015)
